Tests used:
[1] = SPR of immobilization of cutinase to SAM terminated in phosphonate binding partner; settings: PBS pH 7.4; not removed by SDS 0.5 mg/mL
Protocol: A self-assembled monolayer (SAM) terminated in a phosphonate binding partner moiety was prepared. The ligand was present at a low density mixed with tri(ethylene glycol) groups, which resist non-specific protein adsorption. The immobilization of cutinase to the monolayer was characterized by SPR spectroscopy. Phosphate buffered saline (pH 7.4) was flowed over the monolayer for 2 min to establish a baseline, followed by a solution of protein in the same buffer for 10 min to observe binding. Finally, the protein solution was replaced with buffer for 6 min to quantitate the amount of protein that was irreversibly immobilized.

[2] = biological target: T1, β1,4-galactosyltransferase (Bos taurus, UniProt P08037); assay: Glycosyltransferase assay on immobilized carbohydrates (UDP [14C] galactose, phosphorimaging); format: biochemical, bovine; settings: three immobilized carbohydrate substrates; UDP [^14C] galactose 3.5 μM
T1 sequence (P08037 1-402): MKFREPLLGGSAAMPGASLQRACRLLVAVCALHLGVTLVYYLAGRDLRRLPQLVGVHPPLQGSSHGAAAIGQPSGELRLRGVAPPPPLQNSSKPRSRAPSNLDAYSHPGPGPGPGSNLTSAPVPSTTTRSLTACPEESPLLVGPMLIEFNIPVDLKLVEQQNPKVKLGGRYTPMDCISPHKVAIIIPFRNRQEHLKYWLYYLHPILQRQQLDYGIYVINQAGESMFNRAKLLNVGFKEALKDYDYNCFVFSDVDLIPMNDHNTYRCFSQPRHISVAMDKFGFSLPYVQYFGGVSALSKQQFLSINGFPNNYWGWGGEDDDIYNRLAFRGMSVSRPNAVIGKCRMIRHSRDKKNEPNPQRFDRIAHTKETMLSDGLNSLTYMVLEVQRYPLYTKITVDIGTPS
Protocol: FIG. 12 depicts the results of a Glycosyltransferase assay. The surface comprises three different carbohydrate substrates defined by columns and a control column (no substrate). Each row was reacted with a different concentration of β1,4-galactosyltransferase and a constant concentration of sugar donor (UDP [^14C] galactose, 3.5 μM). The reaction was detected by phosphorimaging.
Referring to FIG. 12, in the glycosyltransferase assay, various carbohydrates were immobilized using a thiol chemical tag to bond to a monolayer thiolate bearing a maleimide group. A glycosyltransferase enzyme was added to the immobilized carbohydrates. The ability of the enzyme to add radioactively labeled sugars to the immobilized carbohydrates was measured. In the glycosyltransferase assay the enzyme that was employed is bovine recombinant β1,4-galactosyltransferase. Preferably, the enzyme is at a concentration of about 10 pM to about 100 uM. More preferably, the enzyme is at a concentration of about 100 pM to about 1 uM.
Detection of glycosylation of the immobilized carbohydrate substrates on the base plate was performed radiometrically. The incorporation of ^14C was quantified by exposing a storage phosphor screen to the plate and then imaging it on a Variable Mode Imager (Typhoon 8600; Molecular Dynamics, Sunnyvale, Calif.). […]

streptavidin = streptavidin (Streptomyces avidinii, UniProt P22629); assay: SPR of streptavidin binding to maleimide SAM treated with biotinylated model peptides; settings: SAM presenting maleimide at 2%, then streptavidin
Description: Michael acceptor-derivatized surfaces like that depicted in FIG. 1 are well adapted for selectively immobilizing and orienting functional organic molecules for such uses as biosensors, high throughput assays, binding assays, enzymatic assays and cell cultures. […] Surface binding was detected using biotinylated, cysteine-containing peptides and streptavidin. SAMs presenting the maleimide group at a density of 2% were applied to gold-coated coverslips according to the Examples. The SAM coated coverslips were each treated with solutions containing various reactive molecules dissolved in phosphate buffer (pH 6), and the reactivity of the surface was characterized by flowing the protein streptavidin, which selectively binds biotin, over the SAM. Streptavidin binding was quantitated by surface plasmon resonance.
Referring to FIG. 3, sensorgram (A), the SAM-coated coverslip was treated with a solution of the model biotinylated peptide biotin-NH-Arg-Asp-Cys-CONH2 (1.2 mM) for 12 minutes. 2280 RU of streptavidin binding was observed. Sensorgram (B) was obtained using a solution containing a mixture of the model peptide (0.6 mM) and lysine (16 mM). […]
SPR was performed with a Biacore 3000 instrument. Gold-coated glass microscope cover glass presenting SAMs to be analyzed were mounted in SPR cartridges. […]

[3] = SPR of biospecific-covalent attachment of cutinase-fusion protein to PNPP-terminated surfaces; format: binding
Protocol: A gold chip that presents 1.5% maleimide groups in a background of EG3 was exposed to a 5 mM methanolic solution of (8-mercapto-octyl)-phosphonic acid ethyl ester 4-nitro-phenyl ester—the bifunctional molecule (compound 5; HS-PNPP)—for 1 hour. During this process the thiol group of HS-PNPP reacts with the maleimide groups at the surface and results in 1.5% of a monolayer of the PNPP ligand being presented at the surface.
The chip created above was then loaded into the SPR machine that contacts a microfluidic manifold to the gold chip to allow different solutions to be delivered to the surface in up to 4 flow channels. The following fluidic protocol was then applied to the surface and the SPR signal—which measures the mass of protein that adsorbs to the surface—was measured as a function of time:
t=0 to 300 s. Flow channels 1-3 (Fc=1 to 3) were all exposed to 20 mM tris (pH 7.4) buffer t=300 to 1500 s. Fc=1 to 3 were then exposed to 3 different solutions: Fc=1: 500 ug/mL fibrinogen in 20 mM tris (pH 7.4) buffer Fc=2: 40 microM of cutinase fused to hexahistidine (cutinase-his6) in 20 mM tris buffer Fc=3: 40 microM of cutinase-his6 pre-mixed with 100 microM of PNPP t=1500 to 2250 s. Fc=1 to 3 were all exposed to 20 mM tris (pH 7.4) buffer t=2250 to 2850 s. Fc=1 to 3 were all exposed to 8 mM SDS in 20 mM tris (pH 7.4) buffer t>2850 s. Fc=1 to 3 were all exposed to 20 mM tris (pH 7.4) buffer

[4] = SPR of protein adsorption on biotin-presenting maleimide/EG3 mixed SAM surface (specific binding and NSB)
Protocol: FIG. 4 is a surface plasmon resonance sensorgram of a SAM presenting maleimide at a density of 2%. The SAM-coated coverslip was treated with the biotinylated, thiol-containing, model peptide biotin-NH-Arg-Asp-Cys-CONH2 (1.2 mM) for 12 minutes. Afterwards, a solution of the “sticky” protein fibrinogen (0.5 mg/mL) was flowed over the surface. Only 60 RU of adsorption was observed. Another coverslip was treated with the model peptide solution and then treated with streptavidin that had been pre-incubated with biotin.
A gold chip that presents 1.5% maleimide groups in a background of EG3 was loaded into an SPR machine (Biacore 3000). Two flow channels over this chip were simultaneously exposed to cysteine-biotin that reacts with the maleinide in order to present 1.5% biotin at the surface. Subsequently, one channel was exposed to 70 ug/mL of streptavidin and then one channel was exposed to 500 ug/mL of fibrinogen.
SPR was performed with a Biacore 3000 instrument. Gold-coated glass microscope cover glass presenting SAMs to be analyzed were mounted in SPR cartridges. All experiments used a flow rate of 10 μL/min.

Cutinase: recombinant Fusarium solani pisi cutinase expressed in E. coli
binding to phosphonate monolayer [1]: bound irreversibly to the surface

GlcNAc
substrate for the enzyme [2]: only the immobilized GlcNAc was a substrate

biotin-NH-Arg-Asp-Cys-CONH2
streptavidin binding (streptavidin; peptide 1.2 mM for 12 minutes): 2280 RU

biotin-NH-Arg-Asp-Lys-CONH2
streptavidin binding (streptavidin; peptide 4 mM for 12 minutes): no streptavidin binding

cutinase-his6: cutinase fused to hexahistidine
protein immobilized ([3]; Fc=2, 40 microM in 20 mM tris buffer): 1150 RU
protein immobilized after SDS wash ([3]; Fc=2, after 8 mM SDS wash): 1080 RU
adsorption after preincubation with PNPP ([3]; Fc=3, 40 microM pre-mixed with 100 microM PNPP): 30 RU

fibrinogen
non-specific binding to PNPP surface ([3]; Fc=1, 500 ug/mL fibrinogen): did not stick to this surface
signal change caused by adsorption (NSB) ([4]; 1.5% maleimide in EG3 reacted with cysteine-biotin, 500 ug/mL fibrinogen): 90 RU
adsorption (non-specific) ([4]; SAM 2% maleimide treated with biotin-NH-Arg-Asp-Cys-CONH2, fibrinogen 0.5 mg/mL): 60 RU

streptavidin: protein which selectively binds biotin
signal change caused by adsorption ([4]; 1.5% maleimide in EG3 reacted with cysteine-biotin, 70 ug/mL streptavidin): 2100 RU
